Reference: patent US10620188B2, “Using impedance-based cell response profiling to identify putative inhibitors for oncogene addicted targets or pathways” (ACEA Biosciences, Inc., priority 2002, dated 2020)
Where two headings read alike, the source gives them in different places.

How the values were obtained:
SH-SY5Y = assay: Impedance-based TCRP of SH-SY5Y cells, mutant ALK (F1174L); format: cell-based, human; details: for TCRP (Cell Index response): 10 uM; for IC50: mutant ALK (F1174L), long-term (72 hours post compound treatment) CI
Text: (§1) The cell index was normalized at time of compound addition.
The cell index (CI) was normalized at time of compound addition. […] DMSO was served as solvent control.
The cell index was normalized at time of compound addition. DMSO at the same dose was served as solvent control.
(§2) The cell index (CI) was normalized at time of compound addition.

H1993 = assay: Impedance-based TCRP of Met addicted H1993 cells (xCelligence); format: cell-based, human; details: for TCRP (Cell Index response): increasing concentrations; for IC50: read-out: IC50 (TCRP)
Experimental: as §1
Cells were treated with ACEA348 (0-10 uM) for 30 min.
as §2
The time-dependent cell response profiles (TCRP) were monitored prior to and after the compound addition using the xCelligence system (ACEA Biosciences/Roche applied sciences).
The Cell index was normalized against the cell index values at a time point just before compound addition. […] EC50 and IC50 of the Met inhibitor can be derived from the CI versus the corresponding log concentration of the inhibitor.

10T1/2 tva-H1047R = assay: Impedance-based TCRP of 10T1/2 tva-H1047R cells expressing human p110α (H1047R); format: cell-based, mouse; details: 10T1/2 tva-H1047R; serum starved; from 0 to 10 uM
Experimental: (§3) Cells were serum starved for 5 hour. The cell index was normalized at time of compound addition. At the indicated time point of treatment, increasing concentrations of PI103 (0-10 uM) was added to the cells and the cell responses were monitored.
as §2
A mouse fibroblast 10T1/2 expressing the cell-surface receptor TVA, which is specific for subgroup-A avian retroviruses was used. […] A549 is a human lung cancer cell line expressing wild-type p110α. T47D and BT20 are human breast cancer cell lines expressing mutant p110α (T47D) and p110α (P539R/H1047R), respectively.
(§4) Then the normal growth medium (10% FBS) was exchanged with medium containing 0% FBS. The cells were incubated for additional 5 hours before compound treatment. A PI3K inhibitor (PI103) at different concentrations in DMSO was added into wells following the incubation period. The cell status was monitored prior to and after the compound addition using xCelligence system (Roche applied sciences). […] Cell index of the cells treated with solvent DMSO control was used as baseline. The Cell index was normalized against the cell index values at a time point just before compound addition.

10T1/2 tva = assay: Impedance-based TCRP of control cell line 10T1/2 tva; parameters: species or system mouse; details: 10T1/2 tva control cell line; from 0 to 10 uM
Experimental: as §3, §2
A mouse fibroblast 10T1/2 expressing the cell-surface receptor TVA, which is specific for subgroup-A avian retroviruses was used.
as §4

H1975 [1] = assay: EGF-stimulated CI increase in H1975 cells; format: cell-based; details: Homo sapiens
A431 [2] = assay: Impedance-based TCRP of A431 cells, constitutive EGFR activation; format: cell-based; details: for IC50: Homo sapiens, read-out: IC50 (TCRP, constitutive activation)
Experimental: as §2
A431 cells were seeded into wells of 96 well E-plate devices (Roche applied sciences) with an initial seeding density of 20,000 cells per well and were pre-incubated in incubator with DMEM medium plus 2% FBS over night. […] DMSO at the same dose was served as solvent control. […] The IC50s derived from this experiment evaluate the inhibition of these inhibitors to this basal activation of EGFR (caused by dimerization without EGF stimulation)

A431 [3] = assay: EGF-stimulated CI increase in A431 cells; format: cell-based; details: Homo sapiens
Experimental: A431 cells were seeded at 20,000 cells per well of 96-well E-plate (Roche/ACEA) with 2% fetal bovine serum. The cells were continuously monitored using xCelligence system (Roche/ACEA). […] The cell index was normalized at time of EGF addition.
To further evaluate the efficacies of these EFGR inhibitors, we tested the inhibitory effect of these inhibitors on the EGF stimulated response using impedance-based technology (FIG. 15). In this experiment, A431 cells were seeded at 20,000 cells per well of 96-well E-plate (Roche/ACEA) with 2% fetal bovine serum. The cells were continuously monitored using xCelligence system (Roche/ACEA). […] The cell index was normalized at time of EGF addition.

H1975 [4] = assay: Impedance-based TCRP of H1975 cells, constitutive EGFR activation; format: cell-based; details: for IC50: Homo sapiens, read-out: IC50 (TCRP, constitutive activation)
Experimental: as §2
H1975 cells were seeded at 3,000 cells per well of 96-well E-plate (Roche/ACEA) in RPMI1640 medium with 1% fetal bovine serum. […] The cell index (CI) was normalized at time of compound addition.

PDGFRβ = target: T1, PDGFRβ (Rattus norvegicus, UniProt Q05030); assay: Western analysis of PDGFR signaling pathway in C6 cells; format: cell-based
T1 construct: endogenous in cells; host or cells: C6 rat glioma cells

HCC827 = assay: Impedance-based TCRP of HCC827 cells, mutant EGFR (Del E746_A750); format: cell-based
Experimental: as §2
Kinase inhibitors including EGFR inhibitors at different concentrations in DMSO were added into wells following the incubation period. The cell status was monitored prior to and after the compound addition using xCelligence system (Roche applied sciences). The Cell index was normalized against the cell index values at a time point just before compound addition.

C6 = assay: Impedance-based TCRP of PDGFR addicted C6 glioma cells; format: cell-based, rat; details: for TCRP (Cell Index response): increasing concentrations; for IC50: Rattus norvegicus, read-out: IC50 (TCRP)
Experimental: as §2
Kinase inhibitors including PDGFR inhibitors at different concentrations in DMSO were added into wells following the incubation period. The cell status was monitored prior to and after the compound addition using xCelligence system (Roche applied sciences). […] The Cell index was normalized against the cell index values at a time point just before compound addition.
IC50 of the PDGFR inhibitor can be derived from the CI versus the corresponding log concentration of the inhibitor.

SK-MEL-28 = assay: Impedance-based TCRP of SK-MEL-28, b-Raf (V600E) addicted melanoma cells; format: cell-based, human
Experimental: as §1
(A) The impedance-based time-dependent cellular profiles (TCRPs) of SK-MEL28 in response to b-Raf inhibitor on xCelligence system (Roche/ACEA). […] The cell index (CI) was normalized at time of the compound addition. At the indicated time point of treatment (arrow), increasing concentrations of b-Raf inhibitor (from 0 to 10 uM) were added to the cells and the cell response was monitored. […] (B) EC50 of b-Raf derived from impedance-based TCRP.
as §2
Cell lines. […] The time-dependent cell response profiles (TCRP) were monitored prior to and after the compound addition using the xCelligence system (ACEA Biosciences/Roche applied sciences).
Kinase inhibitors including b-Raf inhibitors at different concentrations in DMSO were added into wells following the incubation period. The cell status was monitored prior to and after the compound addition using xCelligence system (Roche applied sciences). […] The Cell index was normalized against the cell index values at a time point just before compound addition.

[5] = NCI-H1975, H1975, inhibitor 1 hour, then EGF 30 ng/ml, Normalized Cell Index at 30 minutes after EGF, estimated, read-out: IC50 (TCRP, ligand stimulated)
[6] = C6, Long-term (96 hours post compound treatment) CI

T1 sequence (Q05030 32-1097): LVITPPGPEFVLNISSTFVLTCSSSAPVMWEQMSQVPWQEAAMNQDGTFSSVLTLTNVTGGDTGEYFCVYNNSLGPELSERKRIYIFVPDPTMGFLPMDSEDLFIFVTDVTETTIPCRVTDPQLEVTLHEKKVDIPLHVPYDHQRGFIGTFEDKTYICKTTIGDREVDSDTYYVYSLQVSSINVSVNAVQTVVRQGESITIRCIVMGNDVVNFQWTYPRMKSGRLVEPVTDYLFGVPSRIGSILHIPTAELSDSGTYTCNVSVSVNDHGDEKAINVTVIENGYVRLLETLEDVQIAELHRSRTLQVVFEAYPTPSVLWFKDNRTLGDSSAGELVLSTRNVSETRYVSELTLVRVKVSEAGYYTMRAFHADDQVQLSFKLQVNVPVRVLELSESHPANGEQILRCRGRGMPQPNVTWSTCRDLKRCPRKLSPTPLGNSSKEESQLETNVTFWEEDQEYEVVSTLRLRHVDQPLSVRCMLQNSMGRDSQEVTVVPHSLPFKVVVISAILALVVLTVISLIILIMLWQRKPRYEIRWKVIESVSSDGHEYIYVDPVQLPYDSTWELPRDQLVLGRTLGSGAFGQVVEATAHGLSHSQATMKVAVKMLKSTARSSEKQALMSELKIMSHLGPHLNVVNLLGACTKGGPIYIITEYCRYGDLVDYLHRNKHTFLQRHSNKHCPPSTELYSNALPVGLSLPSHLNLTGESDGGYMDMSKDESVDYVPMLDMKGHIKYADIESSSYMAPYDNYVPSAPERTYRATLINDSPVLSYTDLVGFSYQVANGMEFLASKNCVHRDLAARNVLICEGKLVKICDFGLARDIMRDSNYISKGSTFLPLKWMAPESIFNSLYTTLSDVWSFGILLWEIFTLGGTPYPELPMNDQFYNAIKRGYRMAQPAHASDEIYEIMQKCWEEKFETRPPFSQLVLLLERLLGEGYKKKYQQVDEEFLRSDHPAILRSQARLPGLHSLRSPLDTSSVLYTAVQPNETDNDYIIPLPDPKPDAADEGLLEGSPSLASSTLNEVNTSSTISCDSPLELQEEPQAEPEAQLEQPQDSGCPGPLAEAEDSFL

Compound | TCRP (Cell Index response) (H1993; H1993) | TCRP (Cell Index response) (10T1/2 tva-H1047R) | TCRP (Cell Index response) (10T1/2 tva) | also measured
COc1cc2ncnc(Nc3cccc(Cl)c3)c2cc1OC [AG1478] |  |  |  | TCRP (Cell Index response) (SH-SY5Y): None trigged a TCRP representative to that trigger by ALK inhibitors
O=c1[nH]c2ccccc2n1C1CCN(Cc2ccc(-c3nc4cc5[nH]cnc5cc4nc3-c3ccccc3)cc2)CC1 [AKT inhibitor VIII] | None of these inhibitors induced a TCRP similar to PF2341006 | cell index decreases in both the control cell line and H1047R cell line | cell index decreases in both the control cell line and H1047R cell line | 
Cn1c(=O)n(-c2ccc(C(C)(C)C#N)cc2)c2c3cc(-c4cnc5ccccc5c4)ccc3ncc21 [BEZ235] | None of these inhibitors induced a TCRP similar to PF2341006 | triggered 10T1/2-tva-H1047R specific cell index drop | not present in the control cell line 10T1/2-tva | 
CN(C)C/C=C/C(=O)Nc1cc2c(Nc3ccc(F)c(Cl)c3)ncnc2cc1O[C@H]1CCOC1 [BIBW2992] |  |  |  | IC50 (H1975 [1]; NCI-H1975, read-out: IC50 (TCRP, ligand stimulated)): ~200 nM
CN([C@@H](Cc1ccc(OS(=O)(=O)c2cccc3cnccc23)cc1)C(=O)N1CCN(c2ccccc2)CC1)S(=O)(=O)c1cccc2cnccc12 [CaM kinase inhibitor] |  | did not introduce significant cell index changes in either cell line | did not introduce significant cell index changes in either cell line | 
C=CC(=O)Nc1cc2c(Nc3ccc(F)c(Cl)c3)ncnc2cc1OCCCN1CCOCC1 [Canertinib] |  |  |  | TCRP (Cell Index response) (A431 [2]; A431, from 0 to 20 uM): dose-dependent short-term and long-term decrease in Cell Index; IC50 (A431 [2]; A-431, 72 h): 357 nM; IC50 (A431 [3]; A-431, read-out: IC50 (TCRP, ligand stimulated)): < 27 nM; TCRP (Cell Index response) (H1975 [4]; H1975, from 0 to 20 uM): dose-dependent short-term and long-term decrease in Cell Index; IC50 (H1975 [4]; NCI-H1975, 72 h): 396 nM; IC50 (H1975 [1]; [5]): ~150 nM
O=c1cc(CN2CCOCC2)occ1OCCCCCSc1ccnc2cc(C(F)(F)F)ccc12 [EHT1864] | None of these inhibitors induced a TCRP similar to PF2341006 |  |  | 
CC1=C(C(=O)Nc2cc3cn[nH]c3cc2F)C(c2ccc(C(F)(F)F)cc2)CC(=O)N1 (stereo not shown) [GSK429286] | None of these inhibitors induced a TCRP similar to PF2341006 |  |  | 
CNC(=O)c1c(F)cccc1Nc1nc(Nc2cc3c(cc2OC)CCN3C(=O)CN(C)C)nc2[nH]ccc12 [GSK1838705A] |  |  |  | IC50 (SH-SY5Y): 137 nM
O=C1Nc2ccc(I)cc2/C1=C/c1cc(Br)c(O)c(Br)c1 [GW5074] | None of these inhibitors induced a TCRP similar to PF2341006 | cell index decreases in both the control cell line and H1047R cell line | cell index decreases in both the control cell line and H1047R cell line | 
Cc1ccc(NC(=O)c2ccc(CN3CCN(C)CC3)cc2)cc1Nc1nccc(-c2cccnc2)n1 [Imatinib] |  |  |  | phospho-MAPK (Western) (PDGFRβ; downstream target of PDGFR): down-regulated; PDGFRβ autophosphorylation (Western) (PDGFRβ; phospho-PDGFRβ (Y1021)): effectively inhibited
CCCCCCOC(=O)[C@]1(O)C[C@@H]2O[C@@]1(C)n1c3ccccc3c3c4c(c5c6ccccc6n2c5c31)C(=O)NC4 [KT5720] |  | did not introduce significant cell index changes in either cell line | did not introduce significant cell index changes in either cell line | 
COC(=O)[C@@]1(OC)C[C@H]2O[C@]1(C)n1c3ccccc3c3c4c(c5c6ccccc6n2c5c31)C(=O)N(C)C4 [KT5823] |  | did not introduce significant cell index changes in either cell line | did not introduce significant cell index changes in either cell line | 
COc1ccc(-c2ccc3c(N4CCOCC4)nc(N4C[C@@H](C)O[C@@H](C)C4)nc3n2)cc1CO [KU0063794] | None of these inhibitors induced a TCRP similar to PF2341006 | triggered 10T1/2-tva-H1047R specific cell index drop | not present in the control cell line 10T1/2-tva | 
CS(=O)(=O)CCNCc1ccc(-c2ccc3ncnc(Nc4ccc(OCc5cccc(F)c5)c(Cl)c4)c3c2)o1 [Lapatinib] |  |  |  | IC50 (HCC827; Homo sapiens, HCC827, 96 h, read-out: IC50 (TCRP)): 38.8 nM
Cc1ccc(NC(=O)c2ccc(CN3CCN(C)CC3)cc2)cc1Nc1nc(-c2cccnc2)cs1 [Masitinib] | None of these inhibitors induced a TCRP similar to PF2341006 |  |  | TCRP (Cell Index response) (C6; C6): dose-dependent short-term increase (to a various degree) and long-term decrease in Cell Index; IC50 (C6; [6]): 487 nM; TCRP (Cell Index response, cell growth) (HCC827; HCC827, increasing concentrations): did not inhibit HCC827 cell growth
COc1cc(N2CCC(N3CCN(C)CC3)CC2)ccc1Nc1ncc(Cl)c(Nc2ccccc2S(=O)(=O)C(C)C)n1 [NVP-TAE684] |  |  |  | IC50 (SH-SY5Y; Homo sapiens): 10.4 nM
COc1cccc(-c2cc(=O)c3ccccc3o2)c1N [PD98059] | None of these inhibitors induced a TCRP similar to PF2341006 | did not introduce significant cell index changes in either cell line | did not introduce significant cell index changes in either cell line | 
C[C@@H](Oc1cc(-c2cnn(C3CCNCC3)c2)cnc1N)c1c(Cl)ccc(F)c1Cl [PF02341066, Crizotinib] |  |  |  | IC50 (H1993; Homo sapiens, NCI-H1993, 200 h): 3.23 nM; EC50 (H1993; Homo sapiens, NCI-H1993, H1993, short-term (10 hours post compound treatment) CI): 2 nM; IC50 (H1993): 1.87 nM
Oc1ccc(-c2nc(-c3ccncc3)c(-c3ccc(F)cc3)[nH]2)cc1 [SB202190] | None of these inhibitors induced a TCRP similar to PF2341006 | did not introduce significant cell index changes in either cell line | did not introduce significant cell index changes in either cell line | 
C[S+]([O-])c1ccc(-c2nc(-c3ccncc3)c(-c3ccc(F)cc3)[nH]2)cc1 (stereo not shown) [SB203580] | None of these inhibitors induced a TCRP similar to PF2341006 |  |  | 
CN[C@@H]1C[C@H]2O[C@@](C)([C@@H]1OC)n1c3ccccc3c3c4c(c5c6ccccc6n2c5c31)C(=O)NC4 [Staurosporine] |  | cell index decreases in both the control cell line and H1047R cell line | cell index decreases in both the control cell line and H1047R cell line | 
CCN(CC)CCNC(=O)c1c(C)[nH]c(/C=C2\C(=O)Nc3ccc(F)cc32)c1C [Sunitinib] |  |  |  | IC50 (C6; [6]): 42.2 nM
CO[C@H]1C[C@@H]2CC[C@@H](C)[C@@](O)(O2)C(=O)C(=O)N2CCCC[C@H]2C(=O)O[C@H]([C@H](C)C[C@@H]2CC[C@@H](OC(=O)C(C)(CO)CO)[C@H](OC)C2)CC(=O)[C@H](C)/C=C(\C)[C@@H](O)[C@@H](OC)C(=O)[C@H](C)C[C@H](C)/C=C/C=C/C=C/1C [Temsirolimus] |  | triggered 10T1/2-tva-H1047R specific cell index drop | not present in the control cell line 10T1/2-tva | 
N#CC(=C(/N)Sc1ccccc1N)/C(C#N)=C(\N)Sc1ccccc1N [U0126] | None of these inhibitors induced a TCRP similar to PF2341006 | did not introduce significant cell index changes in either cell line | did not introduce significant cell index changes in either cell line | 
C=CC(=O)Nc1cccc(Oc2nc(Nc3ccc(N4CCN(C)CC4)cc3OC)ncc2Cl)c1 [WZ4002] |  |  |  | IC50 (A431 [2]; A-431, A431 (wild-type EGFR), Long-term (72 hours post compound treatment) CI): 4370 nM; IC50 (A431 [3]; A-431, A431, inhibitor 1 hour, then EGF 30 ng/ml, Normalized Cell Index at 30 minutes after EGF, estimated, read-out: IC50 (TCRP, ligand stimulated)): ~2000 nM; IC50 (H1975 [4]; NCI-H1975, H1975 (mutant L858R/T790M EGFR), 72 hours post compound treatment): 560 nM; IC50 (H1975 [1]; [5]): ~1250 nM
CNC(=O)c1cc(Oc2ccc(NC(=O)Nc3ccc(Cl)c(C(F)(F)F)c3)cc2)ccn1 [sorafenib] |  |  | cell index decreases in both the control cell line and H1047R cell line | TCRP (Cell Index response) (SK-MEL-28): did not affect CI changes that are significantly different from the negative control; TCRP (Cell Index response) (C6; C6): dose-dependent short-term increase (to a various degree) and long-term decrease in Cell Index; IC50 (C6; C6, 96 h): 190 nM; TCRP (Cell Index response) (SH-SY5Y): None trigged a TCRP representative to that trigger by ALK inhibitors
CC[C@]1(O)C[C@H]2CN(CCc3c([nH]c4ccccc34)[C@@](C(=O)OC)(c3cc4c(cc3OC)N(C=O)[C@H]3[C@@](O)(C(=O)OC)[C@H](OC(C)=O)[C@]5(CC)C=CCN6CC[C@]43[C@@H]65)C2)C1 [vincristine] |  | cell index decreases in both the control cell line and H1047R cell line | cell index decreases in both the control cell line and H1047R cell line | 
AKT inhibitor IV | None of these inhibitors induced a TCRP similar to PF2341006 |  |  | 
